Laboratory results reported in the NIST ThermoML archive (doi:10.1016/j.fluid.2015.12.048).
Numbers after ± are expanded uncertainties.

Key:
[1] = Crystal
[2] = Molar enthalpy of transition or fusion; details: Crystal; DSC

Row | SMILES | Normal melting temperature ([1]; DTA) [°C] | Normal melting temperature ([1]; visual observation) [°C] | Molar enthalpy of transition or fusion [2] [kcal/mol]
1 | Cc1ccc(C(C)C)c(O)c1 [3-methyl-6-isopropylphenol] | 49.7 ± 0.4 | 50.0 ± 0.4 | 4.19 ± 0.103
2 | CC(C)[C@@H]1CC[C@@H](C)C[C@H]1O [L-menthol] | 43.6 ± 0.4 | 42.8 ± 0.4 | 3.07 ± 0.086
3 | OCc1ccccc1 [benzenemethanol] | -15.0 ± 0.4 | -15.0 ± 0.4 | 
4 | CCCCCCCCCCO [decan-1-ol] | 7.0 ± 0.4 | 7.0 ± 0.4 | 
